Ten compounds from ChEMBL document CHEMBL1201862, “PubChem BioAssay data set” (2004) can be followed below.

The source made the active and inactive calls.

Experiment [1] is described as follows: HeLa 2N DNA content increase, dose response, cell-based, IC50 (AID 1117349). It is filed as functional.
The nature of experiment [2]: HeLa 4N DNA content increase, dose response, cell-based, IC50 (AID 1117351). The format is functional.
The nature of experiment [3]: HepG2 cell cytotoxicity, dose response, cytotoxicity control, luminescence plate reader, powder samples, set 2 (AID 651860). It is filed as functional, cell-based.
The next experiment deals with Ephrin type-A receptor 4 (Mus musculus, UniProt Q03137). The experiment in a line: inhibitors of EphA4 binding to KYL peptide, primary screen, biochemical, colorimetric, mouse EphA4 (AID 689). It is filed as functional.
A short description of experiment [4]: P. falciparum Dd2 growth inhibitors, dose response, SYBR Green, cherry-picked samples (AID 1159567). It is filed as functional, cell-based.
A short description of experiment [5]: HepG2 cell cytotoxicity, dose response, cytotoxicity control, cherry-picked samples (AID 1159577). The format is functional, cell-based.
The nature of experiment [6]: Dose-response inhibition of insulin secretion in a rat insulinoma line at 5 mM glucose (AID 1117331). It is filed as functional, cell-based. The following applies: INS-1E.
Experiment [7] deals with Mannose-6-phosphate isomerase (Homo sapiens, UniProt P34949). The experiment is described as follows: human PMI inhibitors, high substrate, primary screen, biochemical, fluorescence intensity, high mannose 6-phosphate (AID 1220).
Experiment [8] deals with Vero. The experiment in a line: host cell cytotoxicity of antiviral hits, dose response, cytotoxicity control for West Nile virus antiviral project, secondary assay (AID 1650). The format is functional. The following applies: Chlorocebus sabaeus.
The nature of experiment [9]: inhibitors of intracellular T. cruzi replication, confirmation, NIH3T3 host cells, beta-gal luminescence (AID 2044).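 Also: intracellular parasites grown in NIH/3T3 mouse fibroblasts as host cells; luminescent beta-galactosidase reporter signal from transgenic T. cruzi replicating inside host cells; inhibitors lower the luminescence signal.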 The format is functional, cell-based.
Experiment [10] in a line: cytotoxicity toward NIH3T3 fibroblasts, dose response, counter-screen, cell-based, ATP luminescence, mouse fibroblasts (AID 2010).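 Also: cells exposed to compound for about 90 hours before reading.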 The format is functional. In general terms: The purpose of a counterscreen is to sort out artefacts and off-target activity.
Experiment [11] deals with Vero. The experiment in a line: West Nile virus antiviral activity, cell-based, CPE readout (AID 1621). It is filed as functional. The following applies: Chlorocebus sabaeus.
The nature of experiment [12]: Luminescence Cell-Based Secondary HTS screen to identify cytotoxic compounds of NIH3T3 cells. [Related pubchem assays: 1885, 1968 ]. The format is functional.
The target in experiment [13] is NAD-dependent protein deacylase sirtuin-5, mitochondrial (Homo sapiens, UniProt Q9NXA8). The experiment is described as follows: SIRT5 desuccinylase inhibitors, dose response, biochemical, fluorescence imaging, cherry-pick, set 5 (AID 720591).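 Also: desuccinylation of succinyl peptide AMC substrate read as fluorescence after trypsin release; potency of inhibitors that lower fluorescence and may act on trypsin instead.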
The target in experiment [14] is Potassium channel subfamily K member 9 (Homo sapiens, UniProt Q9NPC2). The experiment is described as follows: TASK3 (KCNK9) channel inhibitors, thallium flux, SAR follow-up, selectivity assay for TASK1 inhibitor project, cell-based, FluxOR thallium flux, concentration-response (AID 652211).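 Also: potency is for inhibitors of the channel.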 It is filed as functional.
Experiment [15] concerns the target Potassium channel subfamily K member 3 (Homo sapiens, UniProt O14649). The experiment is described as follows: TASK1 (KCNK3) potassium channel inhibitors, SAR follow-up, CHO cells, FluxOR thallium flux (AID 652212). The format is functional.

Chain of Potassium channel subfamily K member 9 (Q9NPC2 whole entry): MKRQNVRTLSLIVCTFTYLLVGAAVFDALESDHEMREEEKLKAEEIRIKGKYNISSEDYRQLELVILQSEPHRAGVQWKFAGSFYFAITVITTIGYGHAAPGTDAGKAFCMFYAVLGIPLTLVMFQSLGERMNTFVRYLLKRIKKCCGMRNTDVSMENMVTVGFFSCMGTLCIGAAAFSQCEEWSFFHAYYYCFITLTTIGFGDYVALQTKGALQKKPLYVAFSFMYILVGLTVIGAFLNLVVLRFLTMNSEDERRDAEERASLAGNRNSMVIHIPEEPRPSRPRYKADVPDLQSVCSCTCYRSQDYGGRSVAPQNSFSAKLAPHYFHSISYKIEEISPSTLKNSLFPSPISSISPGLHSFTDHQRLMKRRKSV
Chain of Mannose-6-phosphate isomerase (P34949 whole entry): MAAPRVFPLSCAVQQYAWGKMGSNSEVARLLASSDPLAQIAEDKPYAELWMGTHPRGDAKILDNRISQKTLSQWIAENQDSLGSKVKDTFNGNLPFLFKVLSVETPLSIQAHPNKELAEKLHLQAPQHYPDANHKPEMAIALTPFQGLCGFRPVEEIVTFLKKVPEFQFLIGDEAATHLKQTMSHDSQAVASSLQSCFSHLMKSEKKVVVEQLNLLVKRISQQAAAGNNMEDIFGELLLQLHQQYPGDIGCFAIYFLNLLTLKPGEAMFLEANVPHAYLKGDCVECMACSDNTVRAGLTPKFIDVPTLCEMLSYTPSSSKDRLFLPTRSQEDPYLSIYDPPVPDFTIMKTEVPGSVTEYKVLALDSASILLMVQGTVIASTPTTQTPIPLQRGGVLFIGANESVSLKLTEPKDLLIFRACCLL
Chain of Potassium channel subfamily K member 3 (O14649 whole entry): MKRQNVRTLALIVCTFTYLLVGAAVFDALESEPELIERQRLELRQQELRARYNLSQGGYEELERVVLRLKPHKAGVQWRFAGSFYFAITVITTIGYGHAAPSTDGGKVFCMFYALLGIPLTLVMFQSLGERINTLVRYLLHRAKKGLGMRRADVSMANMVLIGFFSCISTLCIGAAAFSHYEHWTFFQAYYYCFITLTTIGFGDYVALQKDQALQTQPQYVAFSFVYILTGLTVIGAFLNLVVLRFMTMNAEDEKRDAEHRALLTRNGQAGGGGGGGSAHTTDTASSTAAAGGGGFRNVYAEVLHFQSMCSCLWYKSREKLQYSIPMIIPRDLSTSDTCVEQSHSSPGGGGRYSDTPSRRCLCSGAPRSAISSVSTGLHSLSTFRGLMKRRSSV
Chain of NAD-dependent protein deacylase sirtuin-5, mitochondrial (Q9NXA8 whole entry): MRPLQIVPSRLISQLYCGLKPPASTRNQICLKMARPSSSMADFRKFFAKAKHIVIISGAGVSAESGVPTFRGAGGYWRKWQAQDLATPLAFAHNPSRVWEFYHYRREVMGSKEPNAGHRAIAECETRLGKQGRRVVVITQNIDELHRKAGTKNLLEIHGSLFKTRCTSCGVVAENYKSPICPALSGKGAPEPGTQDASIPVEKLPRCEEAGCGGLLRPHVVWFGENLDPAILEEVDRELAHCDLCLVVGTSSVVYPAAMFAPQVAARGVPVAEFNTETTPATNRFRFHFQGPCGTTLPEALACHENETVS
Chain of Ephrin type-A receptor 4 (Q03137 whole entry): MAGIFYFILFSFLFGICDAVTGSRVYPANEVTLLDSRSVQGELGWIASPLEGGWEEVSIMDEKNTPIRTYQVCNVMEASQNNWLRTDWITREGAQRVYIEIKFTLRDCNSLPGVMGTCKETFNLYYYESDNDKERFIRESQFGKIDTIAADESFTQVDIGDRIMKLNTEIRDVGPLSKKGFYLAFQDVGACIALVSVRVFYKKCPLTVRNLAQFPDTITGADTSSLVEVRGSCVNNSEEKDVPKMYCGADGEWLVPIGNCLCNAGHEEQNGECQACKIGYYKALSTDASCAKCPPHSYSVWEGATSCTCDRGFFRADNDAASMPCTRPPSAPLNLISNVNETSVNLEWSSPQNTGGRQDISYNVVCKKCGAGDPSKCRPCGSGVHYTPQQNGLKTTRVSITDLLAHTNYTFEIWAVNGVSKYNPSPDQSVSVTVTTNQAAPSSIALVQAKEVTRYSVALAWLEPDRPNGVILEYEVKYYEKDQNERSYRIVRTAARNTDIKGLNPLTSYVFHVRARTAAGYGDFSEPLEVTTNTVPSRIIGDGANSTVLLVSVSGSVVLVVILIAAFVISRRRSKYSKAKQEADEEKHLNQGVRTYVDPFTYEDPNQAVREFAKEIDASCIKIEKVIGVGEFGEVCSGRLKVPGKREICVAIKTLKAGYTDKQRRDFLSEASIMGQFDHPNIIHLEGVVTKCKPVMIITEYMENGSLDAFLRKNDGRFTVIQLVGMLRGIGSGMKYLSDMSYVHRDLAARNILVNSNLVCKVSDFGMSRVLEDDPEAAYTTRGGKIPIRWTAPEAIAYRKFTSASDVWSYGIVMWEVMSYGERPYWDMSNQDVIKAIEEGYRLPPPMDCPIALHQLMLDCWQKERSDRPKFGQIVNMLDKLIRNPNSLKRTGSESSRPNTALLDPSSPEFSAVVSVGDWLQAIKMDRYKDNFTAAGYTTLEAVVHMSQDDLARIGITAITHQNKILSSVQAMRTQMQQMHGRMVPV

Usually IC50 stands for the concentration that gives 50% inhibition. Consider `CCCOc1ccc2[nH]c(NC(=O)OC)nc2c1` [OXIBENDAZOLE], for which the IC50 in [1] was 0.0622 µM (active); in experiment [2], 0.0567 µM (active).

Usually AC50 stands for the concentration giving half of the maximal activity seen. Consider `Cc1ccc(S(=O)(=O)Nc2cc(C(C(=O)OC(C)C)C(=O)C(F)(F)F)c(O)c3ccccc23)cc1` (stereo not drawn), for which, in [3], the AC50 is > 52 µM (inactive). `Cc1cc(C)n(CNc2nc(C(F)(F)F)cs2)n1`: the IC50 on Ephrin type-A receptor 4 is recorded as > 100 µM (not active). For the compound `O=C(C1CC1)N1CC(=O)N2[C@H](C1)[C@@H](c1ccc(C#CCc3ccccc3)cc1)[C@@H]2CO`, the half-maximal activity concentration (AC50) was 9.21 µM (active) in [4] and 35.5 µM (active) in experiment [5].

Turning to `O=C(CCN1CCN2CCCC2C1)N1c2ccccc2Sc2ccc(Cl)cc21` (stereo not drawn) [AZACLORZINE], in [6], the IC50 is 16.8 µM (inactive). In the case of `FC(F)Oc1cccc(NC(=S)N2CCN(c3ccccn3)CC2)c1`, the half-inhibitory concentration (IC50) in [7] is reported as > 50 µM (not active). Usually CC50 stands for the concentration at which the toxic effect on the cells reaches its halfway point. Usually EC50 stands for the concentration at which the effect is half-maximal. In the case of `CN1CCc2ccccc2C1Cc1ccccc1NC(=O)c1sc2ccccc2c1Cl` (stereo not drawn), in the experiment on Vero [8], the 50% cytotoxic concentration (CC50) was > 100 µM (active). The concentration for a half-maximal effect (EC50) in [9] is 2.73 µM (active); in experiment [10], > 60 µM (not active). Also, the IC50 in the experiment with Vero [11] was 41.2 µM (active).

`O=C(NCC1CCCN(Cc2cccc(C(F)(F)F)c2)C1)c1ccc(F)cc1` (stereo not drawn): the EC50 in [9] was 0.112 µM (active); in experiment [12], > 195 µM (not active); in [10], > 60 µM (inconclusive). Turning to `CCn1ccnc1CN(C)C(=O)CC1C(=O)NCCN1Cc1c(F)cccc1Cl` (stereo not drawn), in experiment [13], the AC50 was > 30 µM (inactive). Take `COc1cccc(OC)c1C(=O)Nc1cccc(NC(=O)c2cccc(C)c2)c1`: the IC50 in experiment [14] is 19.2 µM (active); in [15], 0.148 µM (active).
